# Experimental data taken from patent US20250179078A1, “INHIBITORS OF NLRP3” (PTC THERAPEUTICS, INC., priority 2022, published 2025).
# pIC50: −log10 of the molar value.
# Target: T1, NLRP3 (Homo sapiens, UniProt Q96P20)
# T1 construct: host or cells: THP-1 cells differentiated with PMA
# Assay: IL-1β Secretion Assay (NLRP3-dependent IL1β secretion in THP1 cells)
# Assay type: cell-based
# Conditions: PMA-differentiated THP-1 cells; compounds incubated 20 h; 2.5 μM Nigericin 3 h; HTRF IL-1β readout; read-out: IC50 IL-1β Inhibition
# How it was run: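 IL-1β in conditioned media, measured by HTRF after 3 h 2.5 μM nigericin stimulation, gave % inhibition fitted logistically for IC50. Before that, PMA-differentiated (100 ng/mL, 24 h) THP-1 cells were preincubated 20 h with 7 compound concentrations (3-fold serial, DMSO 1:200).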
# T1 sequence (Q96P20 whole entry): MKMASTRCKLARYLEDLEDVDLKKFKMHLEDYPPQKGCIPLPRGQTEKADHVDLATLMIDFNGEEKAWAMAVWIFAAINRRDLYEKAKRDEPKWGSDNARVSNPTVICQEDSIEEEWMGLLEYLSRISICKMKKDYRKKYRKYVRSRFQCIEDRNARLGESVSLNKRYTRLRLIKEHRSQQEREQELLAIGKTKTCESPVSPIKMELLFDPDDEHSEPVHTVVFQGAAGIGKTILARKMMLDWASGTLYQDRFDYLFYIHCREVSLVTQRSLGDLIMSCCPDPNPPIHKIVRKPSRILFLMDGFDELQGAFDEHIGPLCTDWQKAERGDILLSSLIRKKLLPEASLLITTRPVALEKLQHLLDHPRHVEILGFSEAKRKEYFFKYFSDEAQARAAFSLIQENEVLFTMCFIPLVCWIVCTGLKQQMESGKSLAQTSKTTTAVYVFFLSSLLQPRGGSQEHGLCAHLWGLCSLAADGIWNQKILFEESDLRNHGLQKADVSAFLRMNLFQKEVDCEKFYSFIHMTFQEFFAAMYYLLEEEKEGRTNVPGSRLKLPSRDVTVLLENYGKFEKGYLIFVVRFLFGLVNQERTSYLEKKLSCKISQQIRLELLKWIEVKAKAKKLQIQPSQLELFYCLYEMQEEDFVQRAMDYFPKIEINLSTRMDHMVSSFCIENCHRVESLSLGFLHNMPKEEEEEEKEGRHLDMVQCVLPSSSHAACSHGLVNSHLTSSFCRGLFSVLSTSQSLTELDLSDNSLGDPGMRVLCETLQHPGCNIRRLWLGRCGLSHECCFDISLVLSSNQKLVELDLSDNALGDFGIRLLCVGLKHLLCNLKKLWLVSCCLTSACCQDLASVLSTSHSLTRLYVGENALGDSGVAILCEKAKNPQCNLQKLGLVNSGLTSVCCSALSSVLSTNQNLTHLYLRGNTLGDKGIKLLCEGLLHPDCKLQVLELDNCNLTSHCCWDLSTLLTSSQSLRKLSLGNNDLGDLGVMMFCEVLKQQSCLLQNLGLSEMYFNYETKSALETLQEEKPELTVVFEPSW
row,SMILES,pIC50
1,"FC(F)Oc1cc(C(F)(F)F)ccc1-c1nnc(N[C@@H]2CCCOC2)n2cncc12 [Compound 188, 1-[2-(difluoromethoxy)-4-(trifluoromethyl)phenyl]-N-[(3R)-oxan-3-yl]imidazo[1,5-d][1,2,4]triazin-4-amine]",7.00 to 8.00
2,"FC(F)Oc1cc(Cl)ccc1-c1nnc(N[C@@H]2CCCOC2)n2cncc12 [Compound 189, 1-[4-chloro-2-(difluoromethoxy)phenyl]-N-[(3R)-oxan-3-yl]imidazo[1,5-d][1,2,4]triazin-4-amine]",7.00 to 8.00
3,"CN1CCC[C@@H](Nc2nnc(-c3ccc(Cl)cc3OC(F)F)c3cncn23)C1 [Compound 190, 1-[4-chloro-2-(difluoromethoxy)phenyl]-N-[(3R)-1-methylpiperidin-3-yl]imidazo[1,5-d][1,2,4]triazin-4-amine]",> 9.00
4,"CCN1CCC[C@@H](Nc2nnc(-c3ccc(Cl)cc3OC(F)F)c3cncn23)C1 [Compound 191, 1-[4-chloro-2-(difluoromethoxy)phenyl]-N-[(3R)-1-ethylpiperidin-3-yl]imidazo[1,5-d][1,2,4]triazin-4-amine]",> 9.00
5,"OCCN1CCC[C@@H](Nc2nnc(-c3ccc(Cl)cc3OC(F)F)c3cncn23)C1 [Compound 192, 2-[(3R)-3-({1-[4-chloro-2-(difluoromethoxy)phenyl]imidazo[1,5-d][1,2,4]triazin-4-yl}amino)piperidin-1-yl]ethan-1-ol]",7.00 to 8.00
6,"CN1C[C@H](F)C[C@@H](Nc2nnc(-c3ccc(Cl)cc3OC(F)F)c3cncn23)C1 [Compound 193, 1-[4-chloro-2-(difluoromethoxy)phenyl]-N-[(3R,5R)-5-fluoro-1-methylpiperidin-3-yl]imidazo[1,5-d][1,2,4]triazin-4-amine]",8.00 to 9.00
7,"C[C@]1(O)C[C@@H](Nc2nnc(-c3ccc(Cl)cc3OC(F)F)c3cncn23)C1 [Compound 194, (1s,3s)-3-({1-[4-chloro-2-(difluoromethoxy)phenyl]imidazo[1,5-d][1,2,4]triazin-4-yl}amino)-1-methylcyclobutan-1-ol]",8.00 to 9.00
8,"CN1CCC[C@@H](Nc2nnc(-c3ccc(Br)cc3OC(F)F)c3cncn23)C1 [Compound 195, 1-[4-bromo-2-(difluoromethoxy)phenyl]-N-[(3R)-1-methylpiperidin-3-yl]imidazo[1,5-d][1,2,4]triazin-4-amine]",> 9.00
9,"CCN1C[C@H](F)C[C@@H](Nc2nnc(-c3ccc(Br)cc3OC(F)F)c3cncn23)C1 [Compound 196, 1-[4-bromo-2-(difluoromethoxy)phenyl]-N-[(3R,5R)-1-ethyl-5-fluoropiperidin-3-yl]imidazo[1,5-d][1,2,4]triazin-4-amine]",> 9.00
10,"CN1CCC[C@@H](Nc2nnc(-c3ccc(C(F)(F)F)cc3OC(F)(F)F)c3cncn23)C1 [Compound 197, N-[(3R)-1-methylpiperidin-3-yl]-1-[2-(trifluoromethoxy)-4-(trifluoromethyl)phenyl]imidazo[1,5-d][1,2,4]triazin-4-amine]",> 9.00
11,"OCCN1CCC[C@@H](Nc2nnc(-c3ccc(Br)cc3OC(F)F)c3cncn23)C1 [Compound 198, 2-[(3R)-3-({1-[4-bromo-2-(difluoromethoxy)phenyl]imidazo[1,5-d][1,2,4]triazin-4-yl}amino)piperidin-1-yl]ethan-1-ol]",> 9.00
12,"C[C@]1(O)C[C@@H](Nc2nnc(-c3ccc(Br)cc3OC(F)F)c3cncn23)C1 [Compound 199, (1s,3s)-3-({1-[4-bromo-2-(difluoromethoxy)phenyl]imidazo[1,5-d][1,2,4]triazin-4-yl}amino)-1-methylcyclobutan-1-ol]",8.00 to 9.00
13,"CN1CCC[C@@H](Nc2nnc(-c3ccc(Br)cc3C(F)(F)F)c3cncn23)C1 [Compound 200, 1-[4-bromo-2-(trifluoromethyl)phenyl]-N-[(3R)-1-methylpiperidin-3-yl]imidazo[1,5-d][1,2,4]triazin-4-amine]",8.00 to 9.00
14,"OCCN1CCC[C@@H](Nc2nnc(-c3ccc(Br)cc3C(F)(F)F)c3cncn23)C1 [Compound 201, 2-[(3R)-3-({1-[4-bromo-2-(trifluoromethyl)phenyl]imidazo[1,5-d][1,2,4]triazin-4-yl}amino)piperidin-1-yl]ethan-1-ol]",8.00 to 9.00
15,"Cc1ccc(-c2nnc(N[C@@H]3CCCN(C)C3)n3cncc23)c(OC(F)F)c1 [Compound 202, 1-[2-(difluoromethoxy)-4-methylphenyl]-N-[(3R)-1-methylpiperidin-3-yl]imidazo[1,5-d][1,2,4]triazin-4-amine]",8.00 to 9.00
16,"CN1CCC[C@@H](Nc2nnc(-c3ccc(C4CC4)cc3OC(F)F)c3cncn23)C1 [Compound 203, 1-[4-cyclopropyl-2-(difluoromethoxy)phenyl]-N-[(3R)-1-methylpiperidin-3-yl]imidazo[1,5-d][1,2,4]triazin-4-amine]",> 9.00
17,"C[C@]1(O)C[C@@H](Nc2nnc(-c3ccc(Br)cc3C(F)(F)F)c3cncn23)C1 [Compound 204, (1s,3s)-3-({1-[4-bromo-2-(trifluoromethyl)phenyl]imidazo[1,5-d][1,2,4]triazin-4-yl}amino)-1-methylcyclobutan-1-ol]",8.00 to 9.00

row,SMILES,pIC50
1,"CCN1C[C@H](F)C[C@@H](Nc2nnc(-c3ccc(Br)cc3C(F)(F)F)c3cncn23)C1 [Compound 205, 1-[4-bromo-2-(trifluoromethyl)phenyl]-N-[(3R,5R)-1-ethyl-5-fluoropiperidin-3-yl]imidazo[1,5-d][1,2,4]triazin-4-amine]",7.00 to 8.00
2,"Cc1ccc(-c2nnc(N[C@@H]3CCCN(C)C3)n3cncc23)c(C(F)(F)F)c1 [Compound 206, N-[(3R)-1-methylpiperidin-3-yl]-1-[4-methyl-2-(trifluoromethyl)phenyl]imidazo[1,5-d][1,2,4]triazin-4-amine]",> 9.00
3,"CN1CCC[C@@H](Nc2nnc(-c3ccc(C4CC4)cc3C(F)(F)F)c3cncn23)C1 [Compound 207, 1-[4-cyclopropyl-2-(trifluoromethyl)phenyl]-N-[(3R)-1-methylpiperidin-3-yl]imidazo[1,5-d][1,2,4]triazin-4-amine]",> 9.00
4,"COc1ccc(-c2nnc(N[C@@H]3CCCN(C)C3)n3cncc23)c(OC(F)(F)F)c1 [Compound 208, 1-[4-methoxy-2-(trifluoromethoxy)phenyl]-N-[(3R)-1-methylpiperidin-3-yl]imidazo[1,5-d][1,2,4]triazin-4-amine]",> 9.00
5,"CCN1CCC[C@@H](Nc2nnc(-c3ccc(OC)cc3OC(F)(F)F)c3cncn23)C1 [Compound 209, N-[(3R)-1-ethylpiperidin-3-yl]-1-[4-methoxy-2-(trifluoromethoxy)phenyl]imidazo[1,5-d][1,2,4]triazin-4-amine]",> 9.00
6,"COc1ccc(-c2nnc(N[C@@H]3C[C@@H](F)CN(C)C3)n3cncc23)c(OC(F)(F)F)c1 [Compound 210, N-[(3R,5R)-5-fluoro-1-methylpiperidin-3-yl]-1-[4-methoxy-2-(trifluoromethoxy)phenyl]imidazo[1,5-d][1,2,4]triazin-4-amine]",8.00 to 9.00
7,"COc1ccc(-c2nnc(N[C@@H]3CCCN(CCO)C3)n3cncc23)c(OC(F)(F)F)c1 [Compound 211, 2-[(3R)-3-({1-[4-methoxy-2-(trifluoromethoxy)phenyl]imidazo[1,5-d][1,2,4]triazin-4-yl}amino)piperidin-1-yl]ethan-1-ol]",> 9.00
8,"CCN1CCC[C@@H](Nc2nnc(-c3ccc(OC)cc3C(F)(F)F)c3cncn23)C1 [Compound 212, N-[(3R)-1-ethylpiperidin-3-yl]-1-[4-methoxy-2-(trifluoromethyl)phenyl]imidazo[1,5-d][1,2,4]triazin-4-amine]",> 9.00
9,"COc1ccc(-c2nnc(N[C@@H]3CCCN(CCO)C3)n3cncc23)c(C(F)(F)F)c1 [Compound 213, 2-[(3R)-3-({1-[4-methoxy-2-(trifluoromethyl)phenyl]imidazo[1,5-d][1,2,4]triazin-4-yl}amino)piperidin-1-yl]ethan-1-ol]",8.00 to 9.00
10,"COc1ccc(-c2nnc(N[C@H]3C[C@@](C)(O)C3)n3cncc23)c(C(F)(F)F)c1 [Compound 214, (1s,3s)-3-({1-[4-methoxy-2-(trifluoromethyl)phenyl]imidazo[1,5-d][1,2,4]triazin-4-yl}amino)-1-methylcyclobutan-1-ol]",8.00 to 9.00
11,"O[C@H]1CCC[C@@H](Nc2nnc(-c3ccc(C(F)(F)F)cc3C(F)(F)F)c3cncn23)C1 [Compound 215, (1S,3R)-3-({1-[2,4-bis(trifluoromethyl)phenyl]imidazo[1,5-d][1,2,4]triazin-4-yl}amino)cyclohexan-1-ol]",7.00 to 8.00
12,"COc1ccc(-c2nnc(N[C@@H]3CCCN(C)C3)n3cncc23)c(OC(F)F)c1 [Compound 216, 1-[2-(difluoromethoxy)-4-methoxyphenyl]-N-[(3R)-1-methylpiperidin-3-yl]imidazo[1,5-d][1,2,4]triazin-4-amine]",8.00 to 9.00
13,"CN1CCC[C@@H](Nc2nnc(-c3ccc(C(F)(F)F)cc3C(F)(F)F)c3cncn23)C1 [Compound 217, 1-[2,4-bis(trifluoromethyl)phenyl]-N-[(3R)-1-methylpiperidin-3-yl]imidazo[1,5-d][1,2,4]triazin-4-amine]",> 9.00
14,"C[C@]1(O)C[C@@H](Nc2nnc(-c3ccc(C(F)(F)F)cc3C(F)(F)F)c3cncn23)C1 [Compound 218, (1s,3s)-3-({1-[2,4-bis(trifluoromethyl)phenyl]imidazo[1,5-d][1,2,4]triazin-4-yl}amino)-1-methylcyclobutan-1-ol]",8.00 to 9.00
15,"COc1ccc(-c2nnc(N[C@H]3C[C@@](C)(O)C3)n3cncc23)c(OC(F)(F)F)c1 [Compound 219, (1s,3s)-3-({1-[4-methoxy-2-(trifluoromethoxy)phenyl]imidazo[1,5-d][1,2,4]triazin-4-yl}amino)-1-methylcyclobutan-1-ol]",8.00 to 9.00
16,"COc1ccc(-c2nnc(Nc3cc[nH]n3)n3cncc23)c(OC(F)(F)F)c1 [Compound 220, 1-[4-methoxy-2-(trifluoromethoxy)phenyl]-N-(1H-pyrazol-3-yl)imidazo[1,5-d][1,2,4]triazin-4-amine]",6.52 to 7.00
